Columns and labels:
Type in all cases: cell-based, human
[1] = system: parental PD-1 negative KG-1 cells; assay: IFN gamma secretion assay in parental PD-1 negative KG-1 cells (Example 11); conditions: IFNγ secretion
Method: (§1) The KG-1 cell line was used to generate a PD-1 expressing cell line and furthermore, to measure IFNγ release upon incubation with IL-18 variants and corresponding IL-18 immunocytokines.
(§2) IFNγ release was assessed in PD-1 positive (transduced) KG-1 cells, as well as in the parental PD-1 negative cells. 0.5×10^5 cells were seeded into a 96-well U-bottom plate in culture media (RPMI, 10% FBS, 1% L-Glutamine) and stimulated with IL-18 variants/ICs for 20-24 h. The test items were diluted to 100 nM in culture medium, followed by 7 10-fold serial dilutions. The lowest concentration assessed was […]. After incubation, IFNγ release was measured using the LEGENDplex custom human mix and match KIT (Biolegend LEGENDplex™ Human IFN-γ Capture Bead B5, 13X #740942, LEGENDplex™ HU Essential Immune Response Panel Detection Abs, #740931, LEGENDplex™ Buffer Set A #740368). To this end, cell culture supernatant was collected and diluted 1:1 with Assay Buffer. Fluorescence measurements were done with a Quanteon Flow Cytometer from Acea Biosciences. For analysis, MFI values (median fluorescence intensity) were exported and plotted against concentrations used. The EC50 values (half maximal effective concentration) were calculated based on a variable slope and four parameter analysis using GraphPad PRISM software version 9.

[2] = system: PD-1 positive (transduced) KG-1 cells; assay: IFN gamma secretion assay in PD-1 transduced KG-1 cells (Example 11)
Method: as §1
PD-1 expressing cell line generation: Briefly, KG-1 cells were transduced using lentiviral particles carrying the human PD-1 gene (PDCD1 NM_005018; Origene, CAT #: RC210364L3V) at a MOI (Multiplicity of Infection) of 30. Spinfection was performed at 1260 g during 90 min at 37° C. in the presence of 5 μg/ml of Polybrene and 10 mM of HEPES in complete culture media (RPMI, 10% FBS, 1% L-Glutamine). Five days after transduction, puromycin at a final concentration of 1 ug/ml was added to select for PD-1 positive cells. For culture maintenance, puromycin concentration was decreased to 0.5 μg/ml. Stable and homogenous expression of PD-1 was verified by surface staining (BD Pharmingen, #557860).
as §2

[3] = system: PD-1positive transduced NK-92 cells; assay: IFN gamma secretion assay in PD-1 positive transduced NK-92 cells (Example 17)
Method: (§3) To show selectivity of the anti-PD1-IL18 immunocytokine (IC) for PD-1 positive cells, the NK-92 cell line was used to generate a PD-1 expressing cell line and furthermore, to measure IFN[…] release upon incubation with IL-18 variants and ICs.
(§4) On the day of experiment, parental PD-1negative and PD-1positive transduced cells were harvested and washed with PBS 1× and resuspended in medium (w/o IL-2) containing 1 ng/ml of recombinant human Interleukin-12 (SinoBiologicals, Cat #CT011-H08H). After counting, cells were seeded at 100 000 cells/well in a 384 well culture plate and incubated at 37° C./5% CO2. When indicated, cells were preincubated with anti-PD-1 antibody LZM-009 at 17 uM during 30 min at 37° C. […] The lowest concentration assessed was 0.8 fM.
(§5) After 16-20 h incubation at 37° C./5% CO2, 5 μl of supernatant were carefully transferred to a 384 microwell OptiPlate (Perkin Elmer; Cat #6007270) and Interferon-gamma (IFNγ) levels were measured using the Human IFNγ AlphaLISA Assay Kit (Perkin Elmer, Cat #AL217C). […] AlphaLISA signal was then measured on an Enspire plate reader (Perkin Elmer) using 680 and 615 nm as excitation and emission wavelengths respectively. Half maximal effective concentration (EC50) was calculated based on a variable slope, four parameter analysis using GraphPad PRISM software.

[4] = system: parental PD-1negative NK-92 cells; assay: IFN gamma secretion assay in parental PD-1 negative NK-92 cells (Example 17); conditions: IFNγ secretion
Method: as §3, §4, §5

NK92 cells = assay: IFN gamma secretion assay in NK92 cells (Example 10); conditions: IFNγ secretion, 1 ng/ml IL-12
Method: The IFNγ-secretion stimulating activity of the unconjugated IL-18 variants and corresponding IL-18 immunocytokines was evaluated on NK92 cell line. The NK cell line NK-92 derived from a patient with lymphoma (ATCC, Cat #CRL-2407) was cultured in aMEM medium supplemented with 12.5% FCS, 12.5% horse serum (HS), 50 uM B-mercaptoEthanol, and 2 ng/ml of recombinant Human Interleukin-2 (IL-2).
On the day of experiment, cells were harvested and washed with aMEM medium without IL-2 and resuspended in medium (w/o IL-2) containing 1 ng/ml of recombinant human Interleukin-12 (SinoBiologicals, Cat #CT011-H08H). After counting, cells were seeded at 100 000 cells/well in a 384 well titer plate and incubated at 37° C./5% CO2. Sixteen 4-fold serial dilutions of IL-18 analytes were prepared in aMEM medium—1 ng/ml IL-12 and were added to the NK-92 cells. […]
After 16-20 h incubation at 37° C./5% CO2, 5 μl of supernatant were carefully transferred to a 384 microwells OPTIPlate (Perkin Elmer; Cat #6007270) and Interferon-gamma (IFNγ) levels measured using the Human IFNγ AlphaLISA Assay Kit (Perkin Elmer, Cat #AL217C). […] AlphaLisa signal was then measured on an Enspire plate reader (Perkin Elmer) using 680 and 615 nm as excitation and emission wavelengths respectively. Half maximal effective concentration (EC50) was calculated based on a variable slope, four parameter analysis using GraphPad PRISM software.

“SEQ ID NO: 1: Native sequence of human IL-18 (bioactive form) [reference compound]” was tested, and the EC50 [1] was 387 pM, the EC50 ([2]; IFNγ secretion, PD-1 transduced KG-1) was 297 pM and the “PD-1^neg/PD-1^pos EC50 ratio” value ([2]; KG-1 cells) was 1.298. The EC50 ([3]; IFNγ secretion) was 130 pM, the “PD-1^neg/PD-1^pos EC50 ratio” value ([3]; NK-92 cells) was 1.4 and the EC50 [4] was 158 pM. The EC50 (NK92 cells) was 374 pM.
